Tests used:
[1] = target: T1, CETP (Homo sapiens (Human), UniProt P11597); assay: Scintillation Proximity Assay (SPA) for CETP Activity; type: biochemical; conditions: 15 nM CETP, biotinylated LDL, 3H-cholesterol ester HDL; read-out: SPA IC50 (CETP Inhibition)
Procedure: Protocol: Scintillation Proximity Assay (SPA) for CETP Activity
First, low density lipoprotein (LDL) (Meridian) was biotinylated by incubating LDL with biotin for 1 hour on ice, after which it was dialyzed to remove free biotin. Then compounds at varying concentrations were incubated with 15 nM CETP (reagent production group, In Vitro Pharmacology, MRL Rahway) and 50 ug/ml of the biotinylated LDL in 50 mM HEPES, 150 mM NaCl, pH 7.4, for 1 hour at 37° C. The reaction was started by adding ^3H-cholesterol ester high density lipoprotein (HDL) (American Radiochemicals Corp) at a concentration of ˜0.6 nM. The reaction proceeded for 2 hours at 37° C., after which time it was quenched by the addition of 12% acetic acid. PVT streptavadin-coated scintillation proximity beads, which had been brought to room temperature, were then added at a concentration of 4 mg/ml. The assay was then mixed and counted after one half hour in a Microbeta plate reader.
Target sequence in this assay (P11597 18-493): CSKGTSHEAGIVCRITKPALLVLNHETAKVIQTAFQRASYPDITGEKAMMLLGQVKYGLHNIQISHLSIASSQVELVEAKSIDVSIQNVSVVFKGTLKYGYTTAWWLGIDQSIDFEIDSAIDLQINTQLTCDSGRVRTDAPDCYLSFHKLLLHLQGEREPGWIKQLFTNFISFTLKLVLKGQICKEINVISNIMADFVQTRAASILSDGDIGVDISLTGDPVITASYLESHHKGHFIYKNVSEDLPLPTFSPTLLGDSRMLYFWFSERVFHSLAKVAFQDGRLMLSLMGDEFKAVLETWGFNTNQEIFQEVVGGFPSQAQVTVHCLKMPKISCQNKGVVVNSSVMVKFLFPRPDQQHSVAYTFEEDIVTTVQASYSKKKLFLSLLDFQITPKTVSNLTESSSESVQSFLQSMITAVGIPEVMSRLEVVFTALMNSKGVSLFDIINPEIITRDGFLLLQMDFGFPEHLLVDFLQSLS

[2] = target: T1, CETP; assay: In vitro radioactive assay of CETP-catalyzed CE and TG transfer (RTA assay), 95% human serum; type: biochemical; conditions: RTA assay in 95% human serum; read-out: RTA IC50 (CETP Inhibition)
Target sequence in this assay (P11597 18-493 limits assumed): as the sequence (P11597 18-493) above

[3] = cited from earlier work
[4] = patients given torcetrapib and atorvastatin concomitantly compared with atorvastatin alone; cited from earlier work
[5] = patients, anacetrapib with baseline statin therapy compared with just a statin

In the case of `COc1ncc(C(C)C)cc1-c1cnc(N2CC(F)C2)nc1CN1C(=O)O[C@H](c2cc(C(F)(F)F)cc(C(F)(F)F)c2)[C@@H]1C` [Example 2, (4S,5R)-5-[3,5-Bis(trifluoromethyl)phenyl]-3-{[2-(3-fluoroazetidin-1-yl)-5-(5-isopropyl-2-methoxypyridin-3-yl)pyrimidin-4-yl]methyl}-4-methyl-1,3-oxazolidin-2-one], the IC50 [1] is reported as 11 nM.

Work on `COc1ncc(-c2cnn(C)c2)cc1-c1cnc(N2CC(F)C2)nc1CN1C(=O)O[C@H](c2cc(C(F)(F)F)cc(C(F)(F)F)c2)[C@@H]1C` [Example 4] yielded an IC50 [1] of 137 nM.

`COc1ncc(C2CC2)cc1-c1cnc(N2CC(F)C2)nc1CN1C(=O)O[C@H](c2cc(C(F)(F)F)cc(C(F)(F)F)c2)[C@@H]1C` [Example 5] gave an IC50 [1] of 34 nM.

With `COc1ncc(Cl)cc1-c1cnc(N2CCOCC2)nc1CN1C(=O)O[C@H](c2cc(C(F)(F)F)cc(C(F)(F)F)c2)[C@@H]1C` [Example 11, (4S,5R)-5-[3,5-Bis(trifluoromethyl)phenyl]-3-{[5-(5-chloro-2-methoxypyridin-3-yl)-2-(morpholin-4-yl)pyrimidin-4-yl]methyl}-4-methyl-1,3-oxazolidin-2-one] the IC50 [1] was 671 nM.

In the case of `COc1ncc(C2CC2)cc1-c1cnc(N2CCOCC2)nc1CN1C(=O)O[C@H](c2cc(C(F)(F)F)cc(C(F)(F)F)c2)[C@@H]1C` [Example 12, (4S,5R)-5-(3,5-Bis(trifluoromethyl)phenyl)-3-((5-(5-cyclopropyl-2-methoxypyridin-3-yl)-2-morpholinopyrimidin-4-yl)methyl)-4-methyloxazolidin-2-one], the IC50 [1] is reported as 530 nM.

Work on `COc1ncc(Cl)cc1-c1cnc(N2CC(F)C2)nc1CN1C(=O)O[C@H](c2cc(F)cc(F)c2)[C@@H]1C` [Example 13, (4S,5R)-3-{[5-(5-Chloro-2-methoxypyridin-3-yl)-2-(3-fluoroazetidin-1-yl)pyrimidin-4-yl]methyl}-5-(3,5-difluorophenyl)-4-methyl-1,3-oxazolidin-2-one] yielded an IC50 [1] of 728 nM.

`COc1ncc(C(C)C)cc1-c1cnc(N2CCOCC2)nc1CN1C(=O)O[C@H](c2cc(C(F)(F)F)cc(C(F)(F)F)c2)[C@@H]1C` [Example 15, (4S,5R)-5-[3,5-Bis(trifluoromethyl)phenyl]-3-{[5-(5-isopropyl-2-methoxypyridin-3-yl)-2-(morpholin-4-yl)pyrimidin-4-yl]methyl}-4-methyl-1,3-oxazolidin-2-one] showed an IC50 [1] of 229 nM.

Work on `Cc1noc(C)c1-c1cnc(N2CCC2)nc1CN1C(=O)O[C@H](c2cc(C(F)(F)F)cc(C(F)(F)F)c2)[C@@H]1C` [Example 64, (4S,5R)-3-{[2-(azetidin-1-yl)-5-(3,5-dimethylisoxazol-4-yl)pyrimidin-4-yl]methyl}-5-[3,5-bis(trifluoromethyl)phenyl]-4-methyl-1,3-oxazolidin-2-one] yielded an IC50 [2] of 271 nM.

In the case of `COc1cc(F)c(C(C)C)cc1-c1ccc(C(F)(F)F)cc1CN1C(=O)O[C@H](c2cc(C(F)(F)F)cc(C(F)(F)F)c2)[C@@H]1C` [anacetrapib], the increase in mortality ([3]; patients treated with anacetrapib) is listed as “unlikely”, the “decrease of LDL-C” value [3, 5] is listed as 40% and the “increase of HDL-C” value [3, 5] is listed as 138%.

In the case of `CCOC(=O)N1c2ccc(C(F)(F)F)cc2[C@@H](N(Cc2cc(C(F)(F)F)cc(C(F)(F)F)c2)C(=O)OC)C[C@H]1CC` [torcetrapib], the incidence of mortality [4] is listed as “higher incidence of mortality”.
